{"source": "paper PMC11224111", "about": "“Optimizing the pharmacokinetics of an ^211At-labeled RGD peptide with an albumin-binding moiety via the administration of an albumin-binding inhibitor” (European Journal of Nuclear Medicine and Molecular Imaging, 2024)", "key": {"[1]": {"test_system": "U-87 MG tumor-bearing mice", "set-up": "method as in PMID 37819452", "conditions": "until 24-h postinjection, nonadministration of IPBA; cited from earlier work"}, "[2]": {"set-up": "method as in PMID 37819452", "conditions": "normal mice; cited from earlier work"}, "[3]": {"assay": "Radiation dose estimation (MIRDcalc, adult male) from mouse biodistribution", "set-up": "species or system human", "conditions": "for Absorbed dose estimates, Bone marrow / Absorbed dose estimates, Brain / Absorbed dose estimates, Heart / Absorbed dose estimates, Kidney / Absorbed dose estimates, L. intestine / Absorbed dose estimates, Liver / Absorbed dose estimates, Lung / Absorbed dose estimates, Muscle / Absorbed dose estimates, Pancreas / Absorbed dose estimates, S. intestine / Absorbed dose estimates, Spleen / Absorbed dose estimates, Stomach / Absorbed dose estimates, Thyroid / Absorbed dose estimates, Tumor: adult male, MIRDcalc", "description": "For estimation of the radiation dose absorbed, the blood, bone, and muscle mass of mice were assumed to be 8%, 5%, and 48% of body weight, respectively. The stomach was assumed to be distributed only in the wall, the heart, small intestine, and colon equally in the content and wall, and the colon was further assumed to be equally distributed in the left, right, and rectosigmoid. According to the International Commission on Radiological Protection, an equal distribution of radionuclide to trabecular and cortical bones was assumed. The non-decay-corrected activity from each source organ was converted into a percentage of the injected dose. The area under each organ’s activity curve from time 0 to infinity was calculated by extrapolation of biodistribution data. To correct for the different ratios of organ to total body weights in mouse and in human, we used the following organ correction factor (CR):\nCR=organmass/totalbodymasshuman/organmass/totalbodymassmouse\nHuman organ weights and total body weights used data for adult males from previous reports. Tumor volume was converted from mouse-to-human total body weight ratio. According to the values, the radiation doses were calculated for an adult male patient using MIRDcalc v1.21 software (Society of Nuclear Medicine and Molecular Imaging). In the case of without administrating IPBA, calculation was performed using the data of a biodistribution study in our previous study."}, "[4]": {"assay": "Biodistribution of [^211At]1 and [^125I]2 in normal mice with ibuprofen or IPBA as albumin-binding inhibitor", "conditions": "4 h after administration, IPBA 2 eq at 1 h postinjection", "description": "To evaluate the effects of albumin-binding inhibitors in normal mice, [^211At]1 (37 kBq) and [^125I]2 (37 kBq) were intravenously coadministered. […] The total blood albumin (1.1 µmol) in normal mice was calculated from the albumin concentration (3.0 g/dL ≈ 455 µM) in blood, which was informed from Japan SLC, Inc., total blood volume (2.5 mL) as 8% of body weight, and the molecular weight of albumin as 66,000 g/mol. […]\nTable S1. Biodistribution of radioactivity 4 h after administration of [^211At]1 and [^125I]2 in normal mice."}, "[5]": {"conditions": "With IPBA, ratio of absorbed dose estimates"}, "[6]": {"conditions": "Without IPBA, calculated from data of ref 16"}, "[7]": {"conditions": "Without IPBA, ratio of absorbed dose estimates, calculated from data of ref 16"}}}
{"substance": "Ga-DOTA-K([^211At]APBA)-c(RGDfK) [[^211At]1]", "values": [{"measurement": "Excretion, feces", "setting": "[1]", "result": "2.75 ± 0.40", "unit": "%IA"}, {"measurement": "Excretion, urine", "setting": "[1]", "result": "10.94 ± 2.66", "unit": "%IA"}, {"measurement": "Toxicity", "setting": "[2]", "result": "no serious hematotoxicity and weight loss"}, {"measurement": "Absorbed dose to tumor tissue", "setting": "[3]; 1.85 MBq with IPBA", "result": 1.34, "unit": "mGy"}, {"measurement": "Absorbed dose estimates, Bone marrow", "setting": "[3]; With IPBA", "result": 0.042, "unit": "mGy/MBq"}, {"measurement": "Absorbed dose estimates, Brain", "setting": "[3]; With IPBA", "result": 0.017, "unit": "mGy/MBq"}, {"measurement": "Absorbed dose estimates, Heart", "setting": "[3]; With IPBA", "result": 0.080, "unit": "mGy/MBq"}, {"measurement": "Absorbed dose estimates, Kidney", "setting": "[3]; With IPBA", "result": 0.266, "unit": "mGy/MBq"}, {"measurement": "Absorbed dose estimates, L. intestine", "setting": "[3]; With IPBA", "result": 0.056, "unit": "mGy/MBq"}, {"measurement": "Absorbed dose estimates, Liver", "setting": "[3]; With IPBA", "result": 0.109, "unit": "mGy/MBq"}, {"measurement": "Absorbed dose estimates, Lung", "setting": "[3]; With IPBA", "result": 0.203, "unit": "mGy/MBq"}, {"measurement": "Absorbed dose estimates, Muscle", "setting": "[3]; With IPBA", "result": 0.300, "unit": "mGy/MBq"}, {"measurement": "Absorbed dose estimates, Pancreas", "setting": "[3]; With IPBA", "result": 0.087, "unit": "mGy/MBq"}, {"measurement": "Absorbed dose estimates, S. intestine", "setting": "[3]; With IPBA", "result": 0.052, "unit": "mGy/MBq"}, {"measurement": "Absorbed dose estimates, Spleen", "setting": "[3]; With IPBA", "result": 0.117, "unit": "mGy/MBq"}, {"measurement": "Absorbed dose estimates, Stomach", "setting": "[3]; With IPBA", "result": 0.051, "unit": "mGy/MBq"}, {"measurement": "Absorbed dose estimates, Thyroid", "setting": "[3]; With IPBA", "result": 0.032, "unit": "mGy/MBq"}, {"measurement": "Absorbed dose estimates, Tumor", "setting": "[3]; With IPBA", "result": 0.727, "unit": "mGy/MBq"}, {"measurement": "Tumor/normal tissue ratio, Brain", "setting": "[3]; [5]", "result": 51.071}, {"measurement": "Tumor/normal tissue ratio, Heart", "setting": "[3]; [5]", "result": 10.712}, {"measurement": "Tumor/normal tissue ratio, Kidney", "setting": "[3]; [5]", "result": 3.226}, {"measurement": "Tumor/normal tissue ratio, L. intestine", "setting": "[3]; [5]", "result": 15.349}, {"measurement": "Tumor/normal tissue ratio, Liver", "setting": "[3]; [5]", "result": 7.872}, {"measurement": "Tumor/normal tissue ratio, Lung", "setting": "[3]; [5]", "result": 4.227}, {"measurement": "Tumor/normal tissue ratio, Muscle", "setting": "[3]; [5]", "result": 2.860}, {"measurement": "Tumor/normal tissue ratio, Pancreas", "setting": "[3]; [5]", "result": 9.873}, {"measurement": "Tumor/normal tissue ratio, S. intestine", "setting": "[3]; [5]", "result": 16.437}, {"measurement": "Tumor/normal tissue ratio, Spleen", "setting": "[3]; [5]", "result": 7.333}, {"measurement": "Tumor/normal tissue ratio, Stomach", "setting": "[3]; [5]", "result": 16.791}, {"measurement": "Tumor/normal tissue ratio, Thyroid", "setting": "[3]; [5]", "result": 26.729}, {"measurement": "Absorbed dose estimates, Bone marrow", "setting": "[3]; [6]", "result": 0.132, "unit": "mGy/MBq"}, {"measurement": "Absorbed dose estimates, Brain", "setting": "[3]; [6]", "result": 0.218, "unit": "mGy/MBq"}, {"measurement": "Absorbed dose estimates, Heart", "setting": "[3]; [6]", "result": 0.381, "unit": "mGy/MBq"}, {"measurement": "Absorbed dose estimates, Kidney", "setting": "[3]; [6]", "result": 0.427, "unit": "mGy/MBq"}, {"measurement": "Absorbed dose estimates, L. intestine", "setting": "[3]; [6]", "result": 0.193, "unit": "mGy/MBq"}, {"measurement": "Absorbed dose estimates, Liver", "setting": "[3]; [6]", "result": 0.319, "unit": "mGy/MBq"}, {"measurement": "Absorbed dose estimates, Lung", "setting": "[3]; [6]", "result": 0.976, "unit": "mGy/MBq"}, {"measurement": "Absorbed dose estimates, Muscle", "setting": "[3]; [6]", "result": 0.557, "unit": "mGy/MBq"}, {"measurement": "Absorbed dose estimates, Pancreas", "setting": "[3]; [6]", "result": 0.246, "unit": "mGy/MBq"}, {"measurement": "Absorbed dose estimates, S. intestine", "setting": "[3]; [6]", "result": 0.190, "unit": "mGy/MBq"}, {"measurement": "Absorbed dose estimates, Spleen", "setting": "[3]; [6]", "result": 0.354, "unit": "mGy/MBq"}, {"measurement": "Absorbed dose estimates, Stomach", "setting": "[3]; [6]", "result": 0.176, "unit": "mGy/MBq"}, {"measurement": "Absorbed dose estimates, Thyroid", "setting": "[3]; [6]", "result": 0.111, "unit": "mGy/MBq"}, {"measurement": "Absorbed dose estimates, Tumor", "setting": "[3]; [6]", "result": 0.858, "unit": "mGy/MBq"}, {"measurement": "Tumor/normal tissue ratio, Bone marrow", "setting": "[3]; [7]", "result": 6.500}, {"measurement": "Tumor/normal tissue ratio, Brain", "setting": "[3]; [7]", "result": 3.936}, {"measurement": "Tumor/normal tissue ratio, Heart", "setting": "[3]; [7]", "result": 2.252}, {"measurement": "Tumor/normal tissue ratio, Kidney", "setting": "[3]; [7]", "result": 2.009}, {"measurement": "Tumor/normal tissue ratio, L. intestine", "setting": "[3]; [7]", "result": 4.446}, {"measurement": "Tumor/normal tissue ratio, Liver", "setting": "[3]; [7]", "result": 2.690}, {"measurement": "Tumor/normal tissue ratio, Lung", "setting": "[3]; [7]", "result": 0.879}, {"measurement": "Tumor/normal tissue ratio, Muscle", "setting": "[3]; [7]", "result": 1.540}, {"measurement": "Tumor/normal tissue ratio, Pancreas", "setting": "[3]; [7]", "result": 3.488}, {"measurement": "Tumor/normal tissue ratio, S. intestine", "setting": "[3]; [7]", "result": 4.516}, {"measurement": "Tumor/normal tissue ratio, Spleen", "setting": "[3]; [7]", "result": 2.424}, {"measurement": "Tumor/normal tissue ratio, Stomach", "setting": "[3]; [7]", "result": 4.875}, {"measurement": "Tumor/normal tissue ratio, Thyroid", "setting": "[3]; [7]", "result": 7.730}, {"measurement": "Radioactivity, Blood", "setting": "[4]", "result": "8.33 (0.29)^ a, b % injected activity per gram"}, {"measurement": "Radioactivity, Bone", "setting": "[4]", "result": "1.35 (0.06)^ a % injected activity per gram"}, {"measurement": "Radioactivity, Brain", "setting": "[4]", "result": "0.24 (0.04)^ a % injected activity per gram"}, {"measurement": "Radioactivity, Heart", "setting": "[4]", "result": "2.90 (0.09) ^a, b % injected activity per gram"}, {"measurement": "Radioactivity, Kidney", "setting": "[4]", "result": "3.36 (0.20) % injected activity per gram"}, {"measurement": "Radioactivity, L. intestine", "setting": "[4]", "result": "1.53 (0.39) % injected activity per gram"}]}
